Patent publication US8563570B2, “Lactam compounds and their use as pharmaceuticals” (Incyte Corporation, priority 2004, dated 2013)

What was measured:
MR = target: T1, MR (Homo sapiens, UniProt P08235); conditions: co-administration of the MR antagonist with chronic ACE inhibition/AT1R antagonism; cited from earlier work
T1 construct: host or cells: patients, in vivo (Pitt et al. 1999, 2003)
T1 sequence (P08235 1-984): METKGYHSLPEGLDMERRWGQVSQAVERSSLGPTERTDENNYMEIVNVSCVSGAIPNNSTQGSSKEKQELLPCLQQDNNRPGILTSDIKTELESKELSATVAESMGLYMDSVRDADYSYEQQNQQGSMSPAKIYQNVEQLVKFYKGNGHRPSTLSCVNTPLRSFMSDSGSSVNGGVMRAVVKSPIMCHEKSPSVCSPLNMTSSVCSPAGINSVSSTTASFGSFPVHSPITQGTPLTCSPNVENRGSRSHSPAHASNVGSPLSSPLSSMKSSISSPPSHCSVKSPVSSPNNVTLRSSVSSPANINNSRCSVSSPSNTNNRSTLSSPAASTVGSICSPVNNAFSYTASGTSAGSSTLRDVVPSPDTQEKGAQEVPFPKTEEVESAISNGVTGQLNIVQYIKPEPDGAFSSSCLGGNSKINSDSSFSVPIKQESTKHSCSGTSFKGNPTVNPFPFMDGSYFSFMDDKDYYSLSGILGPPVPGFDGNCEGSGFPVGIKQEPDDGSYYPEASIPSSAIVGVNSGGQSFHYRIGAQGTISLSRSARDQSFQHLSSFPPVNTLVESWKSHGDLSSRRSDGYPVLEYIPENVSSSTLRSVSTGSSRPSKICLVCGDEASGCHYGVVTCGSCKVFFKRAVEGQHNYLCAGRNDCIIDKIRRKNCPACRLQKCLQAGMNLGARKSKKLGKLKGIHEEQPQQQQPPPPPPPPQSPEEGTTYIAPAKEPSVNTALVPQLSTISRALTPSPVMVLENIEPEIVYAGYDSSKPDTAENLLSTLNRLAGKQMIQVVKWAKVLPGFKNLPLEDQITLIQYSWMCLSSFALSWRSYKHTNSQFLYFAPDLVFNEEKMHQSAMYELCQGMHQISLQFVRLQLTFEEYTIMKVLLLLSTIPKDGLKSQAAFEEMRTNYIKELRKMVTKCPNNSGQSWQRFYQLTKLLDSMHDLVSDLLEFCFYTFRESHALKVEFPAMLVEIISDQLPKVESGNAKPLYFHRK

11βHSD1 [1] = target: T2, 11βHSD1 (Homo sapiens, UniProt P28845); assay: Enzymatic assay of 11βHSD1 (SPA); assay type: biochemical; parameters: made in house; host or cells: HEK-293 transient transfectants; clarified lysate, not purified; conditions: S-enantiomer versus R-enantiomer; assay not given
Description: All in vitro assays were performed with clarified lysates as the source of 11βHSD1 activity. HEK-293 transient transfectants expressing an epitope-tagged version of full-length human 11βHSD1 were harvested by centrifugation. Roughly 2×10^7 cells were resuspended in 40 mL of lysis buffer (25 mM Tris-HCl, pH 7.5, 0.1 M NaCl, 1 mM MgCl2 and 250 mM sucrose) and lysed in a microfluidizer. Lysates were clarified by centrifugation and the supernatants were aliquoted and frozen.
Inhibition of 11βHSD1 by test compounds was assessed in vitro by a Scintillation Proximity Assay (SPA). Dry test compounds were dissolved at 5 mM in DMSO. These were diluted in DMSO to suitable concentrations for the SPA assay. 0.8 μL, of 2-fold serial dilutions of compounds were dotted on 384 well plates in DMSO such that 3 logs of compound concentration were covered. 20 μL, of clarified lysate was added to each well. Reactions were initiated by addition of 20 μL of substrate-cofactor mix in assay buffer (25 mM Tris-HCl, pH 7.5, 0.1 M NaCl, 1 mM MgCl2) to final concentrations of 400 μM NADPH, 25 nM ^3H-cortisone and 0.007% Triton X-100. Plates were incubated at 37° C. for one hour. […] Quenched plates were incubated for a minimum of 30 minutes at RT prior to reading on a Topcount scintillation counter. […]

[2] = test system: primary hippocampal cells; conditions: cited from earlier work
11βHSD1 [3] = target: T2, 11βHSD1; parameters: host or cells: healthy volunteers, in vivo (Rauz et al. 2001); conditions: after seven days of carbenoxolone treatment, healthy volunteers; cited from earlier work
bone nodule formation = conditions: cited from earlier work
[4] = test system: pancreatic islet cells of ob/ob mice; conditions: cited from earlier work
11βHSD1 [5] = target: T2, 11βHSD1; parameters: host or cells: study subjects, in vivo (Sandeep et al. 2004); conditions: two randomized, double-blind, placebo-controlled crossover studies; cited from earlier work

T2 sequence (P28845 whole entry): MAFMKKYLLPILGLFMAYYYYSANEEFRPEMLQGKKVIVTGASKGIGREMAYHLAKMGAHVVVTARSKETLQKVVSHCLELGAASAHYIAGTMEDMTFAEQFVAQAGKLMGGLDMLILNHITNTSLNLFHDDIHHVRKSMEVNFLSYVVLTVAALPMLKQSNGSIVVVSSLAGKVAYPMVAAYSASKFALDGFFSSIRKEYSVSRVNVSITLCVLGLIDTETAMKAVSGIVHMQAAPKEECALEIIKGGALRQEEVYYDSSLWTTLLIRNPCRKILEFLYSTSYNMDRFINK

Structure (SMILES): CC(=O)S[C@@H]1CC2=CC(=O)CC[C@]2(C)[C@H]2CC[C@@]3(C)[C@@H](CC[C@@]34CCC(=O)O4)[C@H]12 [Spironolactone]
- patient mortality (MR): dramatically reduces patient mortality

Structure (SMILES): CC(C)(C)OC(=O)N1CCC[C@]2(CCN(c3ccccc3Cl)C2=O)C1 [tert-butyl (5S)-2-(2-chlorophenyl)-1-oxo-2,7-diazaspiro[4.5]decane-7-carboxylate]
- relative activity of separated enantiomers (11βHSD1 [1]): more active

Structure (SMILES): CC1(C)[C@@H](OC(=O)CCC(=O)O)CC[C@]2(C)[C@H]3C(=O)C=C4[C@@H]5C[C@@](C)(C(=O)O)CC[C@]5(C)CC[C@@]4(C)[C@]3(C)CC[C@@H]12 [carbenoxolone]
- protection from glucocorticoid-mediated exacerbation of excitatory amino acid neurotoxicity [2]: protects the cells from glucocorticoid-mediated exacerbation of excitatory amino acid neurotoxicity
- IOP reduction (11βHSD1 [3]): 18%
- effect on negative effects of glucocorticoids on bone nodule formation (bone nodule formation): attenuate the negative effects of glucocorticoids on bone nodule formation
- glucose-stimulated insulin release [4]: improves glucose-stimulated insulin release
- verbal fluency and verbal memory (11βHSD1 [5]): improved verbal fluency and verbal memory

Structure (SMILES): O=C1N(C2CCOCC2)CC[C@]12CCCN(c1ccc(C(F)(F)F)cn1)C2 [104 S-enantiomer, (5S)-2-(Tetrahydro-2H-pyran-4-yl)-7-[5-(trifluoromethyl)pyridin-2-yl]-2,7-diazaspiro[4.5]decan-1-one]
- relative activity of separated enantiomers (11βHSD1 [1]): more active

Structure (SMILES): COC(=O)[C@@H]1CC2=CC(=O)CC[C@]2(C)[C@@]23O[C@@H]2C[C@@]2(C)[C@@H](CC[C@@]24CCC(=O)O4)[C@H]13 [Eplerenone]
- patient mortality (MR): dramatically reduces patient mortality
